Data taken from US5106870A, “Methods for the use of thromboxane A2 antagonists” (National Research Development Corporation, priority 1990, dated 1992).

Legend:
[1] = tested on: U-46619-induced platelet aggregation; experiment: Inhibition of U-46619-induced platelet aggregation in rat platelet rich plasma (in vitro); assay type: cell-based; settings: rat PRP
Experimental: a. Inhibition of U-46619-induced platelet aggregation (rat)
Platelet rich plasma (PRP) was prepared from heparanized whole blood (5 units/ml) drawn from the abdominal aorta of ether anesthetized rats. PRP was prepared by centrifugation (Sorvall RC2B, DuPont, Wilmington, Del.) of the whole blood at 150×g for 10 min. Platelet poor plasma (PPP) was prepared by centrifugation at 1200×g for 20 min. Aliquots of PRP and PPP were used to standardize the aggregometer (Payton, Buffalo, N.Y., model 300B) with the recorder (Riken Denshi 2 channel recorder, Payton, model SP-H5P) for measurement of minimum and maximum light transmittance, respectively.
Platelet aggregation was measured as an increase in light transmittance. PRP (390 μl aliquot +5 μl compound vehicle) was preincubated for 1 min. at 37° C., with stirring at 900 rpm in the aggregometer. The vehicle control response was obtained by adding U-46619 (Cayman Chemical, Ann Arbor, Mich., 1-2 units/cuvette/10 μl) to the aliquot of PRP. Aggregation was monitored until maximum aggregation was achieved (approximately 3 min. following the addition of U-46619). Amount of aggregation was measured by grids on the strip chart.
Compounds were dissolved in either ethanol (ETOH) or Na2 CO3 (0.1M) and preincubated at the desired concentration in PRP for 1 min. at 37° C. with stirring. At the end of the preincubation, U-46619 was added and aggregation measured. Inhibition of aggregation by compound was calculated as percent inhibition of the control aggregation response to U-46619. Dose response curves were generated and IC50 's calculated by linear regression.

[2] = tested on: U-46619 induced platelet aggregation; experiment: Ex vivo inhibition of U-46619 induced platelet aggregation, intragastric; assay type: in vivo; settings: rat
Experimental: (§1) II. Ex vivo--(rat) Inhibition of U-46619 induced platelet aggregation
Compounds dissolved in Na Carbonate were administered to conscious rats with an I.G. tube. Fifteen minutes post administration (time previously determined to show maximum effect), rats were anesthetized with ether and blood was sampled from the abdominal aorta, PRP was prepared as described in II a.

[3] = tested on: U-46619 induced platelet aggregation; experiment: Ex vivo inhibition of U-46619 induced platelet aggregation, intravenous; assay type: in vivo; settings: rat
Experimental: as §1
Rats were anesthetized with ether and the jugular vein exposed. Compound dissolved in 0.1M Na Carbonate was injected as a bolus into the jugular vein. Blood (5 ml, heparanized) was sampled 30 sec. later from the abdominal aorta. PRP was prepared by quick centrifugation (Eppendorf, model 5415 at 12,000 rpm for 5 sec. PPP was prepared by centrifugation for 2 min. PRP was diluted 1:1 with PPP from similarly treated animals. Aggregation was monitored for 5 min. and inhibition was determined as previously described.

human washed platelets = experiment: Analysis of partial agonism (shape change/aggregation) in human washed platelets; assay type: cell-based; settings: 5 and 10 min incubation
Experimental: b. Analysis of partial agonism with SC-46985 (human washed platelets)
Sixty ml of blood were drawn into 1/10 volume of CCD (100 mM Na Citrate and 136 mM glucose, pH 6.5 with HCl) and PRP prepared as described above. PRP was placed on ice for 15 min. One half of the volume of CCD was added and recentrifuged. The platelet pellet was gently resuspended in 1/2 the original volume of PRP in a 0° C. modified Tangen-Hepes-BSA buffer (145 mM NaCl, 5 mM KCl, 0.05 mM CaCl2, 0.1 mM MgCl2, 11 mM glucose, 15 mM Hepes, 1 mg/ml bovine serum albumin, pH adjusted to 7.4 with NaOH). The resuspended platelets were incubated undisturbed at 37° C. for 30 min. After incubation a platelet count was determined and adjusted to 3×10^8 cells/ml with the Tangen-Hepes-BSA buffer.
425 μl of the washed human platelet suspension was incubated in the aggregometer in the presence of 16 mM CaCl2 (50 μl) and SC-46985 for 5 and 10 min. […] (In a study similar to (a) above, aliquots of human washed platelets were incubated with various concentrations of SC-46985 and U-46619 to determine dose-related inhibition of aggregation).

## CC(=NNC(=S)Nc1ccccc1)[C@@H]1[C@H]2CC[C@H](C2)[C@H]1C/C=C\CCCC(=O)O (relative stereo) [SC-44161, (±)7-[3α[[(Phenylamino)thioxomethyl]hydrazono]ethyl]1α,4α-bicyclo[2.2.1]hept-2β-yl]-5Z-heptenoic acid]
[1]; aqueous (Na Carbonate) vs ethanol
  more potent in aqueous solution than when dissolved in ethanol: 5-10 fold

## CC(=NNC(=S)Nc1ccccc1)[C@@H]1[C@H]2CC[C@H](C2)[C@H]1C/C=C/CCCC(=O)O [SC-47721, 7-[3α-[1-[[(Phenylamino)thioxomethyl]hydrazono]ethyl]-1R,1α,4α-bicyclo-[2.2.1]hept-2β-yl]-5E-heptenoic acid]
[2]; 1 mg/kg, 15 min post administration
  inhibition of U-46619 induced aggregation: 37.5%
[1]; in vitro
  more potent than SC-44161: 10-50 times
  potency compared with SC-46984: less potent than SC-46984

## CC(=NNC(=S)Nc1ccccc1)[C@H]1[C@@H]2CC[C@@H](C2)[C@@H]1C/C=C\CCCC(=O)O [SC-46985]
[3]
  less potent than SC-44161 (ED50): approximately 1.5 times
Human washed platelets
  partial agonist activity (shape change or aggregation): no evidence of shape change or aggregation

## CC(=NNC(=S)Nc1ccccc1)[C@@H]1[C@H]2CC[C@H](C2)[C@H]1C/C=C\CCCC(=O)O [SC-46984, 7-[3α-[1-[[(Phenylamino)thioxomethyl]hydrazono]ethyl]-1R,1α,4α-bicyclo-[2.2.1]hept-2β-yl]-5Z-heptenoic acid]
[3]
  more potent than SC-44161 (ED50): approximately 3.5 times
[2]
  more potent than SC-44161 (I.G. ED50): approximately 2.8 times
[1]; in vitro
  more potent than SC-44161: approximately 100 times
